Results taken from ChEMBL document CHEMBL1201862, “PubChem BioAssay data set” (2004).
The source made the active and inactive calls. Rule as the data show it, for most assays here: actives have a measured EC50 and inactives only a lower limit.

Experiments:
Paired box protein Pax-8 = Paired box protein Pax-8 (Homo sapiens, UniProt Q06710); assay: inhibitors of PAX8-driven TPO luciferase reporter, dose response, RMG-I cells, cherry-pick (AID 687027); format: functional, cell-based;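 also: luciferase reporter driven by Pax8 target thyroperoxidase promoter measured by SteadyGlo luminescence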
[1] = cytotoxicity in OVCAR8 ovarian cancer cells, dose response, PAX8 project, cell-based, plate reader, dry powder samples (AID 743197); format: functional; details: OVCAR-8
H4 = assay: Luminescence Cell-Based Dose Response HTS to Identify Activators of 5'UTR Stem-Loop Driven Prion Protein mRNA Translation in H4 Neuroglioblastoma Cells. [Related pubchem assays: 1829 (Project Summary), 1814 (Primary HTS)]; format: functional; details: Homo sapiens
[2] = Luminescence Cell-Based Dose Response HTS to Identify Activators of Luciferase Translation or Activity in H4 […] Cells. [Related pubchem assays: 1829 (Project Summary), 1814 (Primary HTS)]; format: functional
[3] = Luminescence Cell-Based Dose Confirmation HTS to Identify Activators of 5'UTR Stem-Loop Driven Alpha-Synuclein mRNA Translation in H4 Neuroglioblastoma Cells. [Related pubchem assays: 1829 (Project Summary), 1814 (Primary HTS)]; format: functional
[4] = cytotoxicity toward NIH3T3 fibroblasts, dose response, counter-screen, cell-based, ATP luminescence, mouse fibroblasts (AID 2010); format: functional;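 also: cells exposed to compound for about 90 hours before reading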
[5] = target: T1, High affinity choline transporter 1 (Homo sapiens, UniProt Q9GZV3); assay: CHT inhibitors, dose response, cell-based, 5-point CRC, membrane potential dye (AID 504840); format: functional
T1 sequence (Q9GZV3 whole entry): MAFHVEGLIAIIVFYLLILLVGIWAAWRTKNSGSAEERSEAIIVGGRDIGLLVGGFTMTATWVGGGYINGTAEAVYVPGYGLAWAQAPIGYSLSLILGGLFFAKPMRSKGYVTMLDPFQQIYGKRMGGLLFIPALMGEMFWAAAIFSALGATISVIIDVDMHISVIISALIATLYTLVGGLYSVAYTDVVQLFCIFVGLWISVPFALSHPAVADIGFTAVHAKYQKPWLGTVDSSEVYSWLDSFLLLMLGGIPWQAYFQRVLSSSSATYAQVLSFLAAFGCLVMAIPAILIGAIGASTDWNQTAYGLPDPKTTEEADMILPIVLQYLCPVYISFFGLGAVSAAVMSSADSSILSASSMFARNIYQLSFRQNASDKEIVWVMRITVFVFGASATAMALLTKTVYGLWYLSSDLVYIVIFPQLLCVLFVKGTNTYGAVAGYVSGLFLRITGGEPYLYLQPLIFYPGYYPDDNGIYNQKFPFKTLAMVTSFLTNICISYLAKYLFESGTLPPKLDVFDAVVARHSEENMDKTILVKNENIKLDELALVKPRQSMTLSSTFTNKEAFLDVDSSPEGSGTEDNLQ

[6] = inhibitors of intracellular T. cruzi replication, confirmation, NIH3T3 host cells, beta-gal luminescence (AID 2044); format: functional, cell-based;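 also: intracellular parasites grown in NIH/3T3 mouse fibroblasts as host cells; luminescent beta-galactosidase reporter signal from transgenic T. cruzi replicating inside host cells; inhibitors lower the luminescence signal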
[7] = THP-1 cell cytotoxicity, dose response, cytotoxicity control for non-replicating M. tuberculosis project (AID 489025); format: functional
cells [8] = format: functional
[9] = NIH-3T3 fibroblast cytotoxicity, dose response, cytotoxicity control, cell-based, fluorescence, Alamar Blue, secondary assay (AID 2327); format: functional;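 also: NIH-3T3 mouse fibroblasts cultured with fluconazole at 8 µg/mL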
[10] = C. albicans growth with fluconazole, confirmation, fluorescence, retest (AID 2467); format: functional, cell-based
[11] = target: T2, Carboxy-terminal domain RNA polymerase II polypeptide A small phosphatase 1 (Homo sapiens, UniProt Q9GZU7); assay: inhibitors of CTDSP1, concentration-response testing, biochemical assay, absorbance-based, actives from ultra-high-throughput screening (AID 540297); format: functional
T2 sequence (Q9GZU7 whole entry): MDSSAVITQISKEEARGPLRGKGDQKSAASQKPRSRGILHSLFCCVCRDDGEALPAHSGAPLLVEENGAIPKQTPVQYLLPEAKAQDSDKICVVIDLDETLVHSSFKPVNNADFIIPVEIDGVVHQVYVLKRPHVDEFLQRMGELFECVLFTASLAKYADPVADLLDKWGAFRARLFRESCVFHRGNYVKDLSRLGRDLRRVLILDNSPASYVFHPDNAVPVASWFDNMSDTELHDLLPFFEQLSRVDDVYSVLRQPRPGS

cells [12] = format: functional, cell-based
cells [13] = format: functional, cell-based; remark: listed apart in the source
[14] = target: T3, Heat shock factor protein 1 (Mus musculus, UniProt P38532); assay: inhibition of MG132-induced HSE-luciferase signal, confirmation, cell-based, NIH3T3, luminescence, dose retest (AID 2382); format: functional;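 also: NIH3T3 fibroblasts with HSF1-driven luciferase reporter stressed by proteasome inhibitor MG132; luminescence from HSF1-driven luciferase expression after 8 hours of MG132 stress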
T3 sequence (P38532 whole entry): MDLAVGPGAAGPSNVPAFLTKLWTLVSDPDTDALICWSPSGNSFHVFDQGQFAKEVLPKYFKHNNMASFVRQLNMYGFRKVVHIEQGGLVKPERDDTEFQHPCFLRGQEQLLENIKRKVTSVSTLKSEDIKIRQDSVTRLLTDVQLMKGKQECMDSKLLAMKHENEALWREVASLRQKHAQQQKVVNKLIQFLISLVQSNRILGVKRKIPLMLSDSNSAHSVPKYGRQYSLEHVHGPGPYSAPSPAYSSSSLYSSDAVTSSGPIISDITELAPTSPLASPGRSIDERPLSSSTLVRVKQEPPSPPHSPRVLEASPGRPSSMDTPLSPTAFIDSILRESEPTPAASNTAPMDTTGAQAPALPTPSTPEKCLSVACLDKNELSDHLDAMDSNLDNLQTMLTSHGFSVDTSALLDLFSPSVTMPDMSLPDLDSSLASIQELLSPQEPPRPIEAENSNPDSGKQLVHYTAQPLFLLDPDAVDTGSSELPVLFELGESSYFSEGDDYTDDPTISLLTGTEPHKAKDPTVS

Fatty acid synthase [15] = target: T4, Fatty acid synthase (Homo sapiens, UniProt P49327); assay: FAS thioesterase domain inhibitors, dose response, biochemical, kinetic fluorescence intensity (AID 624326); format: functional;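 also: rate of fluorescence rise from hydrolysis of a fluorogenic O-methyl fluorescein ester substrate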
Fatty acid synthase [16] = target: T4, Fatty acid synthase; assay: FAS thioesterase domain inhibitors, dose response, biochemical, endpoint fluorescence intensity, uHTS hits (AID 624327); format: functional;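 also: fluorescence from hydrolysis of an O-methyl fluorescein acyl ester substrate by the enzyme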
[17] = system: Streptococcus sp. 'group A'; assay: growth inhibition of control SK(-) GAS strain, dose response, counter-screen for streptokinase expression inhibitor project, luminescence, kanamycin, BacTiterGlo, confirmation (AID 1900); format: functional, organism-based
Streptococcus = assay: Group A Streptococcus viability loss, dose response, counter-screen for streptokinase expression inhibitor project, luminescence, BacTiterGlo (AID 1915); format: functional, organism-based;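 also: potency for reduction of bacterial viability or growth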
Streptokinase A = target: T5, Streptokinase A (Streptococcus pyogenes serotype M1, UniProt P10520); assay: S. pyogenes streptokinase expression inhibitors, potency, dose response, plasminogen activation absorbance, OD405 (AID 1914); format: functional, Streptococcus pyogenes M1 GAS;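 also: secreted streptokinase activity via plasminogen activation per viability signal from cell pellet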
T5 sequence (P10520 whole entry): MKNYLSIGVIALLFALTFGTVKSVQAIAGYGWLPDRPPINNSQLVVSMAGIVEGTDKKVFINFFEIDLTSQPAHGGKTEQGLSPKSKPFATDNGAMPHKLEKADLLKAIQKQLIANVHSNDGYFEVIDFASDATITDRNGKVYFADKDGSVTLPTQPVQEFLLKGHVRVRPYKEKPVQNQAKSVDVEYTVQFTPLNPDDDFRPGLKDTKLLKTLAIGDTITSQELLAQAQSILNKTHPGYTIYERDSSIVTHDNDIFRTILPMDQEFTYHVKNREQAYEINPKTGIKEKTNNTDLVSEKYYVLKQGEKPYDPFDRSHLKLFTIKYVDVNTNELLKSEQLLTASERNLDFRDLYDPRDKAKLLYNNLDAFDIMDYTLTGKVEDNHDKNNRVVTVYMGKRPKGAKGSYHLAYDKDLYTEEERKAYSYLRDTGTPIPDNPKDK

T4 sequence (P49327 whole entry, the tested form may be a part): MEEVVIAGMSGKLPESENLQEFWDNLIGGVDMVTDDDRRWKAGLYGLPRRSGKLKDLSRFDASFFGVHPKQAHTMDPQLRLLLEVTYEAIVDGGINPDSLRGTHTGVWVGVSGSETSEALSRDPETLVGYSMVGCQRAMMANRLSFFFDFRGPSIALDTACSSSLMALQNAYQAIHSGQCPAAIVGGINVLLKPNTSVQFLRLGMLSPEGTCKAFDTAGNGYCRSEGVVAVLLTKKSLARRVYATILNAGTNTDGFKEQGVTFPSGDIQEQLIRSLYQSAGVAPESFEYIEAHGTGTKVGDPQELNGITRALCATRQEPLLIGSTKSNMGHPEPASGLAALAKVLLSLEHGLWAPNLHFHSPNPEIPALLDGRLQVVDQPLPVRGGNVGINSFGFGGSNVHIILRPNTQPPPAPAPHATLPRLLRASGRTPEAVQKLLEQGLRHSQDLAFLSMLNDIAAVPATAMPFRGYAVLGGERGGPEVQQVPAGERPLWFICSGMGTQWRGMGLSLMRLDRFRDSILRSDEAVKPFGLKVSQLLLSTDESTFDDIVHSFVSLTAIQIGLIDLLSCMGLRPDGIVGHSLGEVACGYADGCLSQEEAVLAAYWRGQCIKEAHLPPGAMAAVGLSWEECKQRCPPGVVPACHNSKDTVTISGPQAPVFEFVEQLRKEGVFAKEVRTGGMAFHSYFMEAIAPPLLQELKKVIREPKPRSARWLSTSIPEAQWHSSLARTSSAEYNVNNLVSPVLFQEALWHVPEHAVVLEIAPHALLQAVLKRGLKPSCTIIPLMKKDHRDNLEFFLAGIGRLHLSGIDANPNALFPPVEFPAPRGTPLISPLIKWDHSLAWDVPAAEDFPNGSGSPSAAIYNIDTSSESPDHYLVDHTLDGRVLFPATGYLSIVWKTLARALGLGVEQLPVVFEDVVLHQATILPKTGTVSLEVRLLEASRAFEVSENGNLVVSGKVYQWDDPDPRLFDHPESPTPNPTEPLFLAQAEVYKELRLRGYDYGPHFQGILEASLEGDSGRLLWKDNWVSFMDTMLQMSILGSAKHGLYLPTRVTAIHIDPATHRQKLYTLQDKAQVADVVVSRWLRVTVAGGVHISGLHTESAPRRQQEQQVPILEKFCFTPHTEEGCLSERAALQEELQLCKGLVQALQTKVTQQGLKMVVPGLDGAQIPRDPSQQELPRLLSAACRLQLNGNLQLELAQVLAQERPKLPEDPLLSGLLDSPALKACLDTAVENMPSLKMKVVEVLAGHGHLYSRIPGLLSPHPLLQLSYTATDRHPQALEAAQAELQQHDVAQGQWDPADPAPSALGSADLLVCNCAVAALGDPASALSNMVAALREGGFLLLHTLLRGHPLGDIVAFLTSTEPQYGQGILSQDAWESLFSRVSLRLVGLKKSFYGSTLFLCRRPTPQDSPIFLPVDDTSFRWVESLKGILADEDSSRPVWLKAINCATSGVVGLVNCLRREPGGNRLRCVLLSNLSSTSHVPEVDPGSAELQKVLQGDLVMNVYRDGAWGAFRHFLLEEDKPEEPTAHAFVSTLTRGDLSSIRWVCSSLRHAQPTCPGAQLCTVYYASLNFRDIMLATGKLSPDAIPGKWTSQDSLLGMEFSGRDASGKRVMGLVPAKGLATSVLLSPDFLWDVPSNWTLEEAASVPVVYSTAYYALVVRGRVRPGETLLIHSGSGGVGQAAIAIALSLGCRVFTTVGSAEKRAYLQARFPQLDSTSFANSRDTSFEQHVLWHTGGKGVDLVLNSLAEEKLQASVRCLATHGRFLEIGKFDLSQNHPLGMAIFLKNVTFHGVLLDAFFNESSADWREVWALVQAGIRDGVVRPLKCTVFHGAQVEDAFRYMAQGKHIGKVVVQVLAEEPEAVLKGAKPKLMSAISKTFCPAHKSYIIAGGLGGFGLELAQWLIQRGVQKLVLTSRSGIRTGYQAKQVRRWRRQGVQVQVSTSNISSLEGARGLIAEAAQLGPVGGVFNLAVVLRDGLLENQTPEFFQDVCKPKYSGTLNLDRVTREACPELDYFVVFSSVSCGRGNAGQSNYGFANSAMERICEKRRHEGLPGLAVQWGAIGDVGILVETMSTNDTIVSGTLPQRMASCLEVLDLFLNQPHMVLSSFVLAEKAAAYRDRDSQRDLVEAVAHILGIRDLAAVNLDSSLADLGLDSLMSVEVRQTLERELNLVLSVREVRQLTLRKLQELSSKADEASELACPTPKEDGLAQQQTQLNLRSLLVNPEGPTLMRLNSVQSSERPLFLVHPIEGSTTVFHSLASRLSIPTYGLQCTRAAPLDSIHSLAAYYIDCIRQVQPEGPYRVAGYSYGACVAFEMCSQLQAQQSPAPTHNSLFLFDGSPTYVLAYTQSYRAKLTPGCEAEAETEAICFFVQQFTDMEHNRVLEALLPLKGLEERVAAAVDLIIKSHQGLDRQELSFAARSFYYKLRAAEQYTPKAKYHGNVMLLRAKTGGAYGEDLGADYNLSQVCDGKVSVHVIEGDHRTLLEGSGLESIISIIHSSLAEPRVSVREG
Chain of Paired box protein Pax-8 (Q06710 whole entry): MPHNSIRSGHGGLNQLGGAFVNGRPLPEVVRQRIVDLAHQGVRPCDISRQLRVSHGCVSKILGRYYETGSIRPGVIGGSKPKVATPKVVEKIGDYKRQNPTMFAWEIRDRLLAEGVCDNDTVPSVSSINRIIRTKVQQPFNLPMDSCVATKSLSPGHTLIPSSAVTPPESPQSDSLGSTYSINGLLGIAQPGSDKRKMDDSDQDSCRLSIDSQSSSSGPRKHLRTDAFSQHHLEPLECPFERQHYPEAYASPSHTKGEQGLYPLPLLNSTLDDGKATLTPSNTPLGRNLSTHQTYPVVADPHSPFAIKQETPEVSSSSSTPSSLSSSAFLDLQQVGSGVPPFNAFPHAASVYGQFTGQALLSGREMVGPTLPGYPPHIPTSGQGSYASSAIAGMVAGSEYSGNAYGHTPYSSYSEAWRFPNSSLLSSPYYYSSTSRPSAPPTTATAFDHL

SMILES: C[C@@H]1CN([C@@H](C)CO)C(=O)c2c(c3ccccc3n2C)-c2ccccc2CO[C@H]1CN(C)S(=O)(=O)c1cccc(F)c1
- AC50 (Paired box protein Pax-8): 13.7 µM (active)
- AC50 [1]: 46.4 µM (active)

SMILES: N#Cc1c(/N=C/c2cc(Br)cs2)sc2c1CCC2
- EC50 (H4): 11.2 µM (active)
- EC50 [2]: 33.6 µM (active)
- EC50 [3]: > 120 µM (not active)

SMILES: CN(/N=C/c1ccc([N+](=O)[O-])o1)c1ccccc1
- EC50 [4]: > 60 µM (not active)
- IC50 [5]: 12.9 µM (active)
- EC50 [6]: 0.665 µM (active)

SMILES: Clc1ccc(OCCOCCN2CCc3ccccc3C2)c(Cl)c1
- CC50 [7]: > 40 µM (active)
- IC50 (cells [8]): 18.6 µM (active)

SMILES: O=C(O)CCCCCN1C(=O)/C(=C/c2nc3ccccc3[nH]2)SC1=S
- EC50 [9]: > 150 µM (inactive)
- EC50 [10]: 5.71 µM (active)
- IC50 [11]: 6.09 µM (active)

SMILES: CCN(CC)CCCn1c2c(c(SCC(=O)N3CCc4ccccc43)nc1=O)CCC2
- IC50 [5]: 10.9 µM (active)

SMILES: COc1ccc(-c2cc3c(=O)n(CC(=O)NCc4ccc(F)cc4)ncn3n2)cc1
- EC50 [2]: 0.124 µM (active)
- EC50 [3]: 1.33 µM (active)

SMILES: Cc1c(CCC(=O)O)c(=O)oc2cc(OCc3ccccc3Br)ccc12
- IC50 [11]: 10.6 µM (active)

SMILES: Clc1cccc(Cl)c1Cn1nnc(N2CCCC2)n1
- EC50 (H4): 20.3 µM (active)
- EC50 [2]: 13.8 µM (active)
- EC50 [3]: 12 µM (active)

SMILES: CC1(C)Cc2c(C#N)c(SCCC#N)nc(N3CCOCC3)c2CO1
- EC50 (cells [12]): > 350 µM (not active)
- EC50 (cells [13]): > 350 µM (not active)
- EC50 [14]: > 195 µM (not active)

SMILES: O=C(COC(=O)c1cc([N+](=O)[O-])ccc1N1CCOCC1)Nc1cccc(F)c1
- IC50 (Fatty acid synthase [15]): 0.917 µM (active)
- IC50 (Fatty acid synthase [16]): 1.1 µM (active)

SMILES: NC1=C(c2nc3ccccc3s2)C(=O)CN1Cc1ccccc1
- EC50 (H4): > 120 µM (not active)
- EC50 [2]: 92 µM (active)
- EC50 [3]: > 120 µM (not active)

SMILES: CC(NC(=O)c1cccc(OC2CCN(C(=O)C3CC3)CC2)c1)c1ccc(F)cc1 (stereo not given)
- IC50 [5]: 17.4 µM (active)

SMILES: CCC1Oc2ccccc2N(CC(=O)Nc2ccccc2OC)C1=O (stereo not given)
- EC50 (cells [12]): > 350 µM (not active)
- EC50 (cells [13]): > 350 µM (not active)

SMILES: O=C(Cn1cc([N+](=O)[O-])ccc1=O)NCC1COc2ccccc2O1 (stereo not given)
- IC50 (Fatty acid synthase [15]): 11.5 µM (active)
- IC50 (Fatty acid synthase [16]): 10.1 µM (active)

SMILES: CSCC[C@@H](C(=O)NCCCCCCCCCCC(=O)N1CCN(C(=O)OC(C)(C)C)CC1)n1cc(CCO)nn1
- IC50 [5]: 14.5 µM (active)

SMILES: C/C(=N\NC(=O)c1cc(Br)ccc1O)c1cccc(NC(=O)c2ccccc2F)c1
- EC50 [17]: 3.04 µM (active)
- IC50 [11]: 2.94 µM (active)
- EC50 (Streptococcus): 74 µM (active)
- EC50 (Streptokinase A): > 150 µM (not active)

SMILES: O=C(Nc1ccc(C(=O)O)cc1)/C(=C\c1ccc([N+](=O)[O-])cc1)NC(=O)c1ccc(Br)cc1
- IC50 (Fatty acid synthase [15]): 1.21 µM (active)
- IC50 (Fatty acid synthase [16]): 2.05 µM (active)
